The source of these data is US6387925B1, “Polymorphs of a crystalline azo-bicyclo (2.2.2) oct-3-yl amine citrate and their pharmaceutical compositions” (Pfizer Inc., priority 1999, dated 2002).

This data set is described as follows: Hygroscopicity measurements. It counts as physicochemical. The following applies: for water absorbed (hygroscopicity): at 90% RH. How it is done:
Anhydrous citrate synthesis was carried out by adding 1.1 equivalents citric acid to a stirred slurry of the free base in isopropanol (15 volumes) at room temperature. The resulting solution was stirred and monitored by differential scanning calorimetry and after all the free base had reacted (18 hours), the anhydrous citrate salt was obtained as a white crystalline solid by filtration and drying under house vacuum at 45° C. with nitrogen purge (83% yield). […] The crystalline habits frequently encountered are microcrystalline flakes. The most intense reflections, d spacings, observed by X-ray powder diffraction were 17.608, 10.953, 8.782, 7.956, 7.371, 6.802, 6.571, 5.866, 5.462, 4.907, 4.415, 4.188, 3.635 and 3.512Å.
The resulting citrate monohydrate salt, Form A, was compared to an authentic sample and characterized via PLM, X-ray powder diffraction, proton NMR, Karl Fisher, DSC and elemental analysis. […] The two crystalline habits having similar refractograms encountered were plates and needles. The needle habit was as a result of different rate of growth of the crystal faces in water whereas in isopropanol/water more even growth of crystal faces produced plates. The most intense reflections, d spacings, observed by X-ray powder diffraction were 17.730, 10.928, 9.651, 8.253, 6.707, 5.981, 5.666, 5.450, 4.833, 4.488, and 3.646Å. […] Elemental analysis validated the purity of the salt synthesized.

Structures are written as SMILES. Entries after “also recorded” stand apart in the source; their conditions may differ. Where a name gives a salt, the structure may show the parent alone. Read-outs that look alike come from different tables or passages of the source.

For `COc1ccc(C(C)C)cc1CNC1C2CCN(CC2)C1C(c1ccccc1)c1ccccc1.O.O=C(O)CC(O)(CC(=O)O)C(=O)O` (stereo not shown) [Form A], the “water absorbed (hygroscopicity)” value turned out to be 2.44 % wt./wt. In addition, the “hygroscopicity (in words)” value (citrate monohydrate) is on record as “hygroscopically stable; also recorded: lack of hygroscopicity”.
Regarding `COc1ccc(C(C)C)cc1CN[C@H]1C2CCN(CC2)[C@H]1C(c1ccccc1)c1ccccc1` [anhydrous citrate salt, (2-Benzhydryl-1-azo-bicyclo[2.2.2]oct-3-yl)-(5-isopropyl-2-methoxybenzyl)-amine citrate], the “hygroscopicity (in words)” value is “nonhygroscopic” and the “water absorbed (hygroscopicity)” value is listed as 1.11 % wt./wt.
